Test results taken from patent US6799123B2, “Dissolution test equipment and method” (priority 2001, dated 2004).
Read-outs that look alike come from different tables or passages of the source.

How the values were obtained:
[1] = in vivo blood plasma concentration profile from literature; cited from earlier work
[2] = cited from earlier work
[3] = Single cell dissolution test (comparative); format: physicochemical; settings: flow rate optimized to match in vivo data
Procedure: Equipment was set up as follows: A continuous, stirred, filtration cell, such as the Amicon stirred ultrafiltration cell model 8050, available from Millipore Corporation, was equipped with a peristaltic pump to feed fluid into the cell at a rate in the range 3-10 ml/min. The filtrate from the cell was passed into a 1 cm path length flow-through quartz uv cell. The uv cell is situated in a suitable uv spectrophotometer, such as the Genesys 2, UV Spectrophotemer available from Spectronic Instruments. The filtration cell was fitted with a 3 micron filter to retain undissolved particles. 60 ml of simulated intestinal fluid pH 7.4 was added to the filtration cell, and then simulated intestinal fluid was fed into it via the pump at a flow rate of 6.5 ml/min. This was continued until the absorbance at 276 nm as measured in the uv cell was constant. 50 mg of diclofenac sodium was then added to the filtration cell. The uv absorbance at 276 nm of the effluent from the cell was recorded through the duration of the test. The concentration was calculated using a suitably determined calibration curve. In Table 1 the data from this experiment is compared with in vivo data reported in U.S. Pat. No. 4,510,128. The flow rate for this example was optimized such that the uv absorbance returned to baseline within approximately the same time (8 hours) as the in vivo data.

Row | SMILES | t10 for in vivo data (time after Cmax to fall to 10% of Cmax) [1] [min] | tmax for in vivo data [1] [min] | solubility ([2]; low pH of the stomach) | solubility ([2]; near neutral conditions of the upper GI) | time for uv absorbance of effluent to return to baseline [3] [h]
1 | CC(C)Cc1ccc(C(C)C(=O)O)cc1 (stereo not drawn) [ibuprofen] | 410 | 70 | – | – | –
2 | O=C(O)Cc1ccccc1Nc1c(Cl)cccc1Cl [diclofenac sodium] | – | – | essentially insoluble | soluble | ~8
3 | CC(=O)Nc1ccc(O)cc1 [paracetamol] | 510 | 33 | – | – | –
4 | CN[C@@H](C)[C@@H](O)c1ccccc1 [pseudoephedrine] | 1380 | 90 | – | – | –
